The test system of one series is recombinant NL4-3 virus. The experiment in a line: HIV cell culture assay (antiviral activity, luciferase readout in MT-2 cells). Conditions: Human immunodeficiency virus 1, NL43, MT2. In kind it is cell-based. Here is the method:
HIV cell culture assay—MT-2 cells, 293T cells and the proviral DNA clone of NL4-3 virus were obtained from the […] AIDS Research and Reference Reagent Program. MT-2 cells were propagated in RPMI 1640 media supplemented with 10% heat inactivated fetal bovine serum (FBS), […] penicillin G and up to 100 units/mL streptomycin. The 293T cells were propagated in DMEM media supplemented with 10% heat inactivated FBS, […] penicillin G and […] streptomycin. A recombinant NL4-3 proviral clone, in which a section of the nef gene was replaced with the Renilla luciferase gene, was used to make the reference virus used in these studies. The recombinant virus was prepared through transfection of the recombinant NL4-3 proviral clone into 293T cells using Transit-293 Transfection Reagent from Mirus Bio LLC (Madison, Wis.). Supernatent was harvested after 2-3 days and the amount of virus present was titered in MT-2 cells using luciferase enzyme activity as a marker by measuring luciferase enzyme activity. Luciferase was quantitated using the EnduRen Live Cell Substrate from Promega (Madison, Wis.). Antiviral activities of compounds toward the recombinant virus were quantified by measuring luciferase activity in MT-2 cells infected for 4-5 days with the recombinant virus in the presence of serial dilutions of the compound.
The 50% effective concentration (EC50) was calculated by using the exponential form of the median effect equation where (Fa)=1/[1+(ED50/drug conc.)m] (Johnson V A, Byington R T. Infectivity Assay. In Techniques in HIV Research. ed. Aldovini A, Walker B D. 71-76. New York: Stockton Press. 1990). The 50% inhibitory concentration (EC50) was calculated by using the exponential form of the median effect equation where percent inhibition=1/[1+(EC50/drug concentration)m], where m is a parameter that reflects the slope of the concentration-response curve.

The nature of series [1]: Compound cytotoxicity, XTT-based colorimetric assay. In kind it is cell-based. Particulars: human; uninfected MT2 cells, day 4, XTT; read-out: CC50. Here is the method:
Compound cytotoxicity and the corresponding CC50 values were determined using the same protocol as described in the antiviral assay except that uninfected cells were used. Cytotoxicity was assessed on day 4 in uninfected MT2 cells by using a XTT (2,3-bis[2-Methoxy-4-nitro-5-sulfophenyl]-2H-tetrazolium-5-carboxyanilide inner salt)-based colorimetric assay (Sigma-Aldrich, St Louis, Mo.).

Molecules are shown by their SMILES. Where only a bound is given, the exact number is not on record here.

What is called EC50 is the concentration giving half of the maximal effect. By CC50 is commonly meant the concentration giving 50% cytotoxicity.

With `C[C@@H]1CN(c2ccc3c(=O)n(-c4ccc(Cl)c5c(NS(C)(=O)=O)nn(C)c45)c([C@H](Cc4cc(F)cc(F)c4)NC(=O)Cn4nc(C(F)F)c5c4C(F)(F)[C@@H]4C[C@H]54)nc3c2)C[C@H](C)N1C` (atropisomer, axis not shown; (P)) [Example 16, N—((S)-1-((3P)-3-(4-chloro-1-methyl-3-(methylsulfonamido)-1H-indazol-7-yl)-4-oxo-7-((3S,5R)-3,4,5-trimethylpiperazin-1-yl)-3,4-dihydroquinazolin-2-yl)-2-(3,5-difluorophenyl)ethyl)-2-((3bS,4aR)-3-(difluoromethyl)-5,5-difluoro-3b,4,4a,5-tetrahydro-1H-cyclopropa[3,4]cyclopenta[1,2-c]pyrazol-1-yl)acetamide], the EC50 in the series on recombinant NL4-3 virus was determined as 0.08 nM. Further, the CC50 at 4 days in series [1] was > 1000 nM.

Regarding `Cn1nc(NS(C)(=O)=O)c2c(Cl)ccc(-n3c([C@H](Cc4cc(F)cc(F)c4)NC(=O)Cn4nc(C(F)F)c5c4C(F)(F)[C@@H]4C[C@H]54)nc4cc(NCC(F)(F)F)ccc4c3=O)c21` (atropisomer, axis not shown; (P)) [Example 42, N—((S)-1-((3P)-3-(4-chloro-1-methyl-3-(methylsulfonamido)-1H-indazol-7-yl)-4-oxo-7-((2,2,2-trifluoroethyl)amino)-3,4-dihydroquinazolin-2-yl)-2-(3,5-difluorophenyl)ethyl)-2-((3bS,4aR)-3-(difluoromethyl)-5,5-difluoro-3b,4,4a,5-tetrahydro-1H-cyclopropa[3,4]cyclopenta[1,2-c]pyrazol-1-yl)acetamide], the EC50 in the series on recombinant NL4-3 virus amounted to 0.11 nM. The CC50 at 4 days in series [1] is > 1000 nM.

For the molecule `Cn1nc(NS(C)(=O)=O)c2c(Cl)ccc(-n3c([C@H](Cc4cc(F)cc(F)c4)NC(=O)Cn4nc(C(F)F)c5c4C(F)(F)[C@@H]4C[C@H]54)nc4cc(N5CC(S(C)(=O)=O)C5)ccc4c3=O)c21` (atropisomer, axis not shown; (P)) [Example 26, N—((S)-1-((3P)-3-(4-chloro-1-methyl-3-(methylsulfonamido)-1H-indazol-7-yl)-7-(3-(methylsulfonyl)azetidin-1-yl)-4-oxo-3,4-dihydroquinazolin-2-yl)-2-(3,5-difluorophenyl)ethyl)-2-((3bS,4aR)-3-(difluoromethyl)-5,5-difluoro-3b,4,4a,5-tetrahydro-1H-cyclopropa[3,4]cyclopenta[1,2-c]pyrazol-1-yl)acetamide], the EC50 in the series with recombinant NL4-3 virus came out at 0.295 nM. Besides, the CC50 at 4 days in series [1] was > 500 nM.

With `C[C@@H]1CN(c2ccc3c(=O)n(-c4ccc(Cl)c5c(NS(C)(=O)=O)nn(CC(F)F)c45)c([C@H](Cc4cc(F)cc(F)c4)NC(=O)Cn4nc(C(F)(F)F)c5c4C(F)(F)[C@@H]4C[C@H]54)nc3c2)C[C@H](C)O1` (atropisomer, axis not shown; (P)) [Example 45, N—((S)-1-((3P)-3-(4-chloro-1-(2,2-difluoroethyl)-3-(methylsulfonamido)-1H-indazol-7-yl)-7-((2S,6R)-2,6-dimethylmorpholino)-4-oxo-3,4-dihydroquinazolin-2-yl)-2-(3,5-difluorophenyl)ethyl)-2-((3bS,4aR)-5,5-difluoro-3-(trifluoromethyl)-3b,4,4a,5-tetrahydro-1H-cyclopropa[3,4]cyclopenta[1,2-c]pyrazol-1-yl)acetamide], the EC50 in the series with recombinant NL4-3 virus came to 0.1 nM. The 50% cytotoxic concentration (CC50) at 4 days in series [1] was > 500 nM.

`C[C@@H]1CN(c2ccc3c(=O)n(-c4ccc(Cl)c5c(NS(C)(=O)=O)nn(C)c45)c([C@H](Cc4cc(F)cc(F)c4)NC(=O)Cn4nc(C(F)(F)F)c5c4C(F)(F)[C@@H]4C[C@H]54)nc3c2)C[C@H](C)O1` (atropisomer, axis not shown; (P)) [Example 54, N—((S)-1-((3P)-3-(4-chloro-1-methyl-3-(methylsulfonamido)-1H-indazol-7-yl)-7-((2S,6R)-2,6-dimethylmorpholino)-4-oxo-3,4-dihydroquinazolin-2-yl)-2-(3,5-difluorophenyl)ethyl)-2-((3bS,4aR)-5,5-difluoro-3-(trifluoromethyl)-3b,4,4a,5-tetrahydro-1H-cyclopropa[3,4]cyclopenta[1,2-c]pyrazol-1-yl)acetamide]: the EC50 in the series on recombinant NL4-3 virus was 0.073 nM. Also, the CC50 at 4 days in series [1] was > 500 nM.

With `CCCS(=O)(=O)Nc1nn(C)c2c(-n3c([C@H](Cc4cc(F)cc(F)c4)NC(=O)Cn4nc(C(F)F)c5c4C(F)(F)[C@@H]4C[C@H]54)nc4cc(N5CCOCC5)ccc4c3=O)ccc(Cl)c12` (atropisomer, axis not shown; (P)) [Example 66, N—((S)-1-((3P)-3-(4-chloro-1-methyl-3-(propylsulfonamido)-1H-indazol-7-yl)-7-morpholino-4-oxo-3,4-dihydroquinazolin-2-yl)-2-(3,5-difluorophenyl)ethyl)-2-((3bS,4aR)-3-(difluoromethyl)-5,5-difluoro-3b,4,4a,5-tetrahydro-1H-cyclopropa[3,4]cyclopenta[1,2-c]pyrazol-1-yl)acetamide], the EC50 in the series with recombinant NL4-3 virus turned out to be 0.066 nM. Besides, in series [1], the half-maximal cytotoxic concentration (CC50) at 4 days is > 500 nM.

Turning to `Cn1nc(NS(C)(=O)=O)c2c(Cl)ccc(-n3c([C@H](Cc4cc(F)cc(F)c4)NC(=O)Cn4nc(C(F)F)c5c4C(F)(F)[C@@H]4C[C@H]54)nc4cc(N5CCC6(CC5)COC6)ccc4c3=O)c21` (atropisomer, axis not shown; (P)) [Example 25, N—((S)-1-((3P)-3-(4-chloro-1-methyl-3-(methylsulfonamido)-1H-indazol-7-yl)-4-oxo-7-(2-oxa-7-azaspiro[3.5]nonan-7-yl)-3,4-dihydroquinazolin-2-yl)-2-(3,5-difluorophenyl)ethyl)-2-((3bS,4aR)-3-(difluoromethyl)-5,5-difluoro-3b,4,4a,5-tetrahydro-1H-cyclopropa[3,4]cyclopenta[1,2-c]pyrazol-1-yl)acetamide], in the series with recombinant NL4-3 virus, the EC50 came out at 0.095 nM. Also, the CC50 at 4 days in series [1] was > 500 nM.

Regarding `Cn1nc(NS(C)(=O)=O)c2c(Cl)ccc(-n3c([C@H](Cc4cc(F)cc(F)c4)NC(=O)Cn4nc(C(F)F)c5c4C(F)(F)[C@@H]4C[C@H]54)nc4cc(N5CC(C)(C)OC(C)(C)C5)ccc4c3=O)c21` (atropisomer, axis not shown; (P)) [Example 57, N—((S)-1-((3P)-3-(4-chloro-1-methyl-3-(methylsulfonamido)-1H-indazol-7-yl)-4-oxo-7-(2,2,6,6-tetramethylmorpholino)-3,4-dihydroquinazolin-2-yl)-2-(3,5-difluorophenyl)ethyl)-2-((3bS,4aR)-3-(difluoromethyl)-5,5-difluoro-3b,4,4a,5-tetrahydro-1H-cyclopropa[3,4]cyclopenta[1,2-c]pyrazol-1-yl)acetamide], the EC50 in the series with recombinant NL4-3 virus came out at 0.077 nM. In series [1], the CC50 at 4 days was > 500 nM.

As to `Cn1nc(NS(C)(=O)=O)c2c(Cl)ccc(-n3c([C@H](Cc4cc(F)cc(F)c4)NC(=O)Cn4nc(C(F)F)c5c4C(F)(F)[C@@H]4C[C@H]54)nc4cc(N5CCC(S(C)(=O)=O)CC5)ccc4c3=O)c21` (atropisomer, axis not shown; (P)) [Example 30, N—((S)-1-((3P)-3-(4-chloro-1-methyl-3-(methylsulfonamido)-1H-indazol-7-yl)-7-(4-(methylsulfonyl)piperidin-1-yl)-4-oxo-3,4-dihydroquinazolin-2-yl)-2-(3,5-difluorophenyl)ethyl)-2-((3bS,4aR)-3-(difluoromethyl)-5,5-difluoro-3b,4,4a,5-tetrahydro-1H-cyclopropa[3,4]cyclopenta[1,2-c]pyrazol-1-yl)acetamide], the EC50 in the series with recombinant NL4-3 virus is 0.381 nM. In series [1], the CC50 at 4 days is > 500 nM.
